“Also recorded” adds a separate entry of the source.

The source of these data is US20090143761A1, “AGENT DELIVERY SYSTEM AND USES OF SAME” (T[…] COMPANY, LLC, priority 2005, published 2009).

The conditions of series [1]: oral administration of tablets; cited from earlier work.
The conditions of series [2]: excised rabbit pinna skin; cited from earlier work.
The nature of series [3]: Calculated diffusion and mass transfer coefficients in membranes of different thickness. The conditions noted are these: Urea in 5.15% agar gel vs Urea, 1 mm layer. The source says: A simplified model can be developed to account for the transport of molecules out of the skin and through the sampling chamber. The model consists of diffusion through the skin, which can be approximated by diffusion through a semi-porous protein matrix membrane and then diffusion into a bulk solution. The concentration profile in the membrane and in the bulk solution may not be consistent, in which case a partition coefficient can be used to relate the transport of molecules from the membrane to the bulk solution. The use of an iontophoretic device can, by nature of the process, produce an electric field. […]
The bulk phase diffusivity needs to be adjusted to take into account the winding path through a porous matrix. The effective diffusivity is calculated from the bulk diffusivity, void fraction, and the tortuosity. The mass transfer coefficient can be calculated from the effective diffusivity and the membrane thickness. The flux of molecules in the presence of an electrical charge can be calculated with the Nernst-plank equation.
To illustrate the effect of diffusion through a porous matrix a few calculations were performed as an example. Assuming a protein layer of 1 mm, the mass transfer coefficients were calculated for Urea (0.88 microns/s) and for Urea in a 5.15% agar gel (0.47 microns/s). […]

For series [4] the following is noted: lithium concentration of 158.4 mM, iontophoresis, mice.
Method: First, the total charge delivered to the animal during the course of the experiment was determined.
The animal model employed was that of the SKH-1 male mouse, 6 weeks old, obtained from Charles River Laboratories. The mice arrived the morning of the experiments and were used within three hours of their arrival.
Due to the fragility of the iontophoresis pad application and electrode attachment, the mice had to be restrained during the experiments. To accomplish this, a commercial mouse restrainer was purchased from Kent Scientific and modified with two holders on either side of the restrainer. The holders were placed over existing access holes in the restrainer such that spring loaded electrodes could be positioned within the holder.
The mice were given a low dosage of Halothane to allow them to be weighed and positioned in the restrainer so that there was minimal risk of the electrode pads being kicked or scraped off of the patch as the mouse was being positioned. The Halothane was administered by saturating a paper towel that had been placed at the bottom of a glass desiccator jar. The jar was placed in an exhaust fume hood prior to opening the Halothane bottle. This gave a saturated Halothane environment, in a well-ventilated area, and allowed the effects of the anesthesia to be closely monitored. […]
The conditions of series [5]: patients who are prescribed lithium; cited from earlier work.
The conditions of series [6]: in vivo; cited from earlier work.
For series [7] the following is noted: 52.8 mM and 105.6 mM donor.
The next series deals with humans. The conditions noted are these: cited from earlier work.
For series [8] the following is noted: cyclic voltammagrams.
A short description of series [9]: Stability of primaquine after exposure to iontophoresis, thin layer chromatography. The conditions noted are these: silica gel TLC, n-butanol:acetic acid:water (5:3:2).
Series [10] is described as follows: In-vitro transdermal delivery of primaquine patch across human epidermal membranes with iontophoresis.
For series [11] the following is noted: cited from earlier work.
Another series addresses T1, plasma cholinesterase (Homo sapiens, UniProt P06276).
T1 construct: confirming the capacity of the BTC substrate to detect cholinesterase activity in plasma; from tissue; host or cells: plasma
The series is described as follows: Selective inhibition of cholinesterase activity in plasma samples. Particulars: quinidine 20 μM; BTC vs other substrate. The format is biochemical.

The next series deals with Uremic rats. Particulars: intermittent administration; cited from earlier work.

T1 sequence (P06276 29-602): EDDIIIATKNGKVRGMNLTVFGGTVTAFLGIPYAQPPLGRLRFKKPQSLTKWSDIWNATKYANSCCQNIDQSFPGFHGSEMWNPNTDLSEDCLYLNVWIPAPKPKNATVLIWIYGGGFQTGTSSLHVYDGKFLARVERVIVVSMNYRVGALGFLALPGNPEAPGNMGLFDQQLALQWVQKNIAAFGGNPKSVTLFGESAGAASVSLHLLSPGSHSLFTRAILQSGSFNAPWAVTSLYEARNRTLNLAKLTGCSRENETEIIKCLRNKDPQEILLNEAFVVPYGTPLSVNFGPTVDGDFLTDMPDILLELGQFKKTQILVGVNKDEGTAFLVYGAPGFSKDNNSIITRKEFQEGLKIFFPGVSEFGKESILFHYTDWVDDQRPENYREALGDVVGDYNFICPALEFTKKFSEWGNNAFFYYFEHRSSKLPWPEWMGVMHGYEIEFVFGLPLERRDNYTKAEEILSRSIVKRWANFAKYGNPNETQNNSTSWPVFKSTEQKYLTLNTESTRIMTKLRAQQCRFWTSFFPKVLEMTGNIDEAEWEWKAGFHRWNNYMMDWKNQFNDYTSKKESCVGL

Turning to `COC(=O)C(c1ccccc1)C1CCCCN1` (stereo not shown) [Methylphenidate], the bioavailability result in series [1] is given as “approximately 30%”. Regarding `NC(=O)[C@@H]1CCCN1C(=O)[C@H](Cc1cnc[nH]1)NC(=O)[C@@H]1CCC(=O)N1` [TRH, Thyrotropin-releasing hormone], in series [2], the “pulsed vs continuous current iontophoretic flux” value is “the pulsed iontophoretic flux exceeded that obtained with a continuous current”. On to `NC(N)=O` [Urea], for which the “decrease of mass transfer by addition of a gel matrix” value in series [3] is given as 47%. Take `O=C([O-])[O-].[Li+].[Li+]` [lithium, lithium carbonate]: the “serum concentration of lithium” value in series [4] is “approximately 0.2 mM”. Also, in [5], the “patients who experience some adverse effects” value is recorded as “More than 80%”. Moreover, the plasma elimination half-life in series [6] was 12 to 27 h. Besides, in series [7], the “effect of donor compartment lithium carbonate concentration on receiver compartment lithium concentration” value is “caused an equivalent increase in the receiver compartment lithium concentration”.

As for `CNC1(C)C2CCC(C2)C1(C)C` (stereo not shown) [mecamylamine, Mecamylamine], the “effect on self-reported effects of alcohol” value in the series on humans is “reduces the self-reported stimulant and euphoric effects of alcohol”. Take `CN1CCCC1c1cccnc1` (stereo not shown) [nicotine]: in series [8], the “voltage at which nicotine is oxidized” value is reported as about 1 volt.

In the case of `COc1cc(NC(C)CCCN)c2ncccc2c1` (stereo not shown) [primaquine], the “stability of the primaquine molecule after exposure to iontophoresis (TLC of receptor compartment contents)” value in series [9] is recorded as “intact primaquine is present; also recorded: there is more than one species of molecule present”. Also, in [10] (epidermal membrane, receptor PBS pH 7.4, no current applied), the “passive diffusion of primaquine before and after iontophoresis” value was “Minimal passive diffusion”. For the same molecule, the “amount of primaquine delivered using electrotransport” value in series [10] (in 40 minutes) is 160 µg. Further, the “share of the 10 mg dose delivered passively each hour” value in series [11] (passive delivery) is “Approximately 5%”. In addition, the “amount of primaquine delivered transdermally” value in series [11] (within 24 hours, to achieve therapeutic plasma concentrations) is on record as 10 mg. For `C=C[C@H]1C[N@@]2CC[C@H]1C[C@@H]2[C@@H](O)c1ccnc2ccc(OC)cc12` [quinidine], the “inhibitory effect on cholinesterase activity in plasma samples” value against plasma cholinesterase is on record as “the inhibitory effect was observed only when BTC was used”. Take “PTH(1-37): parathyroid hormone fragment given intermittently to Uremic rats (AVSEIQLMHNLGKHLASVERMQWLRKKLQDVHNFVSL; Parathyroid hormone; UniProt P04089 32-68, looked up, fragment)”: the “effect on growth and bone mineral density” value in the series on Uremic rats was “improves growth and bone mineral density”.
